In patent US6369066B1, “Substituted 1,3-oxathiolanes with antiviral properties” (BioChem Pharma, Inc., priority 1990, dated 2002):
In brackets after ≈: the same amount, converted by molar mass.

Tests used:
Assay type in all cases: cell-based
HIV-1 strain RF = experiment: Formazan (MTT) assay on MT-4 cells, anti-HIV-1 antiviral activity; settings: Human immunodeficiency virus 1, MT4, 168 h, MT-4 cells infected with HIV-1 strain RF, 7 days, read-out: IC50 (50% anti-viral dose, ID 50%)
Description: Formazan Assay on MT-4 and 3TC™-Resistant Cell Lines
(§1) Anti-HIV-1 antiviral activity was determined in MT-4 calls and MT-4 cells that have been made resistant to 3TC™. A suspension of cells (approximately 10^6 cells/ml) in RPMI 1640 growth medium was infected with HIV-1 strain RF at a M.O.I. of 10^−3 infectious units/cell. An uninfected cell suspension was prepared in parallel to evaluate drug-induced cytotoxicity. The two suspensions were incubated for 90 minutes at room temperature. Test compounds were serially diluted in 10-fold decrements from 100 μg/ml to 0.01 μg/ml (final concentrations in two 96 well microtitre plates. 20 μl of infected cell suspension were inoculated into each well of one of the plates (anti-viral), while 20 μl of uninfected cell suspension were added to each well of the second plate (cytotoxicity). The plates were then incubated for 7 days at 37° C. After incubation, 10 μl of 3-(4,5-dimethylthiazol-2-yl)-2,5-diphenyltetrazolium bromide (MTT) at 20 mg/ml was added to all wells and the plates incubated for a further 90 minutes at 37° C.
150 μl of 10% (v/v) alcoholic Triton X-100 was then added and the cells resuspended. After 15 minutes at room temperature, the plates were analyzed in a Multiskan MC reader at 405 nm. Conversion of yellow MMT to its formazan derivative is maximum in uninfected cells, and absent in untreated infected cells. The optical density values for the cytotoxicity controls and the antiviral test wells were graphically plotted and the dose of compounds required to inhibit the conversion of MMT to 50% of the untreated uninfected controls was calculated. In this way, both the 50% cytotoxic dose (CD 50%) and the 50% anti-viral dose (ID 50%) can be calculated.

MT-4 cells = experiment: Formazan (MTT) assay, drug-induced cytotoxicity in uninfected MT-4 cells; settings: human, 7 days
Description: as §1, with “A suspension of cells (approximately 10^6 cells/ml) in RPMI 1640 growth medium was infected with HIV-1 strain RF at a M.O.I. of 10^−3 infectious units/cell.” left out
150 μl of 10% (v/v) alcoholic Triton X-100 was then added and the cells resuspended. After 15 minutes at room temperature, the plates were analyzed in a Multiskan MC reader at 405 nm. […] The optical density values for the cytotoxicity controls and the antiviral test wells were graphically plotted and the dose of compounds required to inhibit the conversion of MMT to 50% of the untreated uninfected controls was calculated.

C8166 cells = experiment: Cytotoxicity (CD50) reported with syncytium formation assay; settings: syncytium formation table
HIV-1 (HTLV-IIIB) = experiment: CBM assay, IC50 from RT levels in culture fluids; settings: Human immunodeficiency virus 1
Description: Assays on cord blood mononuclear cells were done substantially as described in Gu et al., J. Virol. (1992), 66:7128-7135.
(§2) In short, viruses (HTLV-IIIB) that had initially been grown on MT-4 cells were passaged onto phytohemaglutinin-prestimulated cord blood mononuclear cells (CBM). For subsequent analysis, samples of CBM (5×10^5 cells per mL) were pretreated with various concentrations of the different compounds for 4 h and were then inoculated with CBL-grown HIV-1 at a multiplicity of infection of 1.0 in the concentration of the compound used for the pretreatment. Fresh medium, including the appropriate concentration of the compound was added three times weekly, and fresh phytohemaglutinin-prestimulated CBM (5×10^5 cells per mL) were added at 2-day intervals. The calculation of IC50 was determined on the basis of RT levels in culture fluids as described in Gao et al., (1992), J. Virol. 66: 12-19.

[1] = system: cord blood mononuclear cells (CBM); experiment: Cytotoxicity (CD50) reported with CBM assay
Description: Assays on cord blood mononuclear cells were done substantially as described in Gu et al., J. Virol.
as §2, with “The calculation of IC50 was determined on the basis of RT levels in culture fluids as described in Gao et al., (1992), J. Virol.” left out

[2] = system: HIV-1 HXB2D-65 K→R (ddC resistance mutation); experiment: IC50 in CBMCs with constructed mutated virus HXB2D-65; settings: Human immunodeficiency virus 1, read-out: IC50 HXB2D-65 K→R
Description: as §2
Determination of IC50 (μM) in Different Mutated Isolates of HIV-1 in the Presence of Different Antiviral Compounds
The procedure is similar to the procedure used in the CBM assay, with the exception that constructed virus and construted mutated virus were used.
The constructed virus HXB2D-65 correspond to the ddC resistance mutation and the constructed virus HXB2D-184 correspond to the 3TC™ and FTC resistance mutation.

HTLV-IIIb = experiment: HIV-1 acutely infected cell lines, p24 antigen levels; settings: p24 antigen at day 6; for ID50 CEM: CEM cells infected with HTLV-IIIb; for ID50 H9: H9 cells infected with HTLV-IIIb; for ID50 Jurkat: Jurkat cells infected with HTLV-IIIb; for ID50 MT-4: MT-4 cells infected with HTLV-IIIb; for ID50 U937: U937 cells infected with HTLV-IIIb
Description: Determination of IC50 ([…]) in HIV-1 Acutely Infected Cell Lines in the Presence of Differet Antiviral Compounds
Various cell lines were infected with HTLV-IIIb (TCID50=200) and then cultured with various concentrations of drug. IC50 was determined by measuring p24 antigen levels in the supernatant of cultures at day 6 of infection.

CBMCs = experiment: Cell culture inhibitory dose (CCID50) in CBMCs; settings: cell counting, trypan blue exclusion, 7 days post drug treatment
Description: (§3) Evaluation of Cell Culture Inhibitory Dose (CCID50)
(§4) Cell growth was determined by cell counting and viability by trypan blue exclusion 7 days post drug treatment. CCID50 is expressed as the drug concentration which inhibits 50% of cell growth.

MT-4 = experiment: Cell culture inhibitory dose (CCID50) in MT-4; settings: cell counting, trypan blue exclusion, 7 days post drug treatment
Description: as §3, §4

H9 = experiment: Cell culture inhibitory dose (CCID50) in H9; settings: cell counting, trypan blue exclusion, 7 days post drug treatment
Description: as §3, §4

CEM = experiment: Cell culture inhibitory dose (CCID50) in CEM; settings: cell counting, trypan blue exclusion, 7 days post drug treatment
Description: as §3, §4

Structure (SMILES) | IC50 (HIV-1 strain RF) [µg/mL] | CD50 (50% cytotoxic dose) (MT-4 cells) [µg/mL] | CD50 (C8166 cells) [µg/mL] | IC50 (HIV-1 (HTLV-IIIB)) [µg/mL] | CD50 [1] [µg/mL] | IC50 [2] [µM] | ID50 CEM (HTLV-IIIb) [µg/mL] | ID50 H9 (HTLV-IIIb) [µg/mL] | ID50 Jurkat (HTLV-IIIb) [µg/mL] | ID50 MT-4 (HTLV-IIIb) [µg/mL] | ID50 U937 (HTLV-IIIb) [µg/mL] | CCID50 CBMCs (CBMCs) [µM] | CCID50 MT-4 (MT-4) [µM] | CCID50 H9 (H9) [µM] | CCID50 CEM (CEM) [µM]
Nc1nc(=O)n([C@@H]2CO[C@H](CO)S2)cc1F [compound 4, 2S-hydroxymethyl-4S-(5′-fluorocytosin-1′-yl)-1,3-oxathiolane] | 2.9 (≈ 11.7 µM) | 100 | >100 | 0.02 to 0.05 (≈ 0.0809 to 0.202 µM) | >23 | 6.5 | 0.3 (≈ 1.21 µM) | 1.0 (≈ 4.04 µM) | 6.0 (≈ 24.3 µM) | 3.2 (≈ 12.9 µM) | 0.4 (≈ 1.62 µM) | >500 | >500 | >500 | >500
Nc1ccn([C@@H]2CO[C@H](CO)S2)c(=O)n1 [Compound #2, 2S-hydroxymethyl-4S-(cytosin-1′-yl)-1,3-oxathiolane] | 4.4 (≈ 19.2 µM) | >100 | >100 | 0.03 to 1.22 (≈ 0.131 to 5.32 µM) | >23 | 3.5 | 0.4 (≈ 1.74 µM) | 0.075 (≈ 0.327 µM) | 1.8 (≈ 7.85 µM) | 0.9 (≈ 3.93 µM) | 0.3 (≈ 1.31 µM) | 105 | >500 | >500 | 103
Nc1nc(=O)n([C@H]2CO[C@@H](CO)S2)cc1F [compound 3, 2R-hydroxymethyl-4R-(5′-fluorocytosin-1′-yl)-1,3-oxathiolane] | 6 (≈ 24.3 µM) | >100 | >100 | 0.002 to 0.05 (≈ 0.00809 to 0.202 µM) | >23 | 11.5 | 0.2 (≈ 0.809 µM) | 0.1 (≈ 0.404 µM) | 3.5 (≈ 14.2 µM) | 3.0 (≈ 12.1 µM) | 0.6 (≈ 2.43 µM) | >500 | >500 | >500 | >500
